From US20240270758A1, “PYRIDINO-OR PYRIMIDO-CYCLIC COMPOUND, PREPARATION METHOD THEREFOR AND MEDICAL USE THEREOF” (Genfleet Therapeutics (Shanghai) Inc., priority 2021, published 2024)

How the values were obtained:
Type in all cases: cell-based, human
[1] = tested on: p-ERK in AGS cells (KRAS^G12D mutation); test: Cell p-ERK detection assay; details: 3 h incubation, HTRF
Procedure: AGS was purchased from ATCC; Cat. NO.: CRL-1739; F12K was purchased from Gibco; Cat. NO.: 21127-022; FBS was purchased from Gibco; Cat. NO.: 10099-141C; Trypsin (containing EDTA) was purchased from Gibco; Cat. NO.: 25200-072; DMSO was purchased from VWRAMRESCO; Cat. NO.: 0231-500ML; 96-well cell culture plate was purchased from Corning; Cat. NO.: 3599; An white background opaque 96-well plate was purchased from Cisbio; Cat. NO.: 66PL96025; Advance ERK phospho-T202/Y204 kit was purchased from Cisbio; Cat. NO.: 64AERPEH; Cell Counters were purchased from CHEMOMETEC; Model NO.: NC-200; microplate reader was purchased from PerkinElmer; Model NO.: Envison.
AGS is an endogenous human gastric adenocarcinoma cell line containing KRAS^G12D mutation, cultured in F12K+10% FBS medium. On the first day of the experiment, cells in the logarithmic growth phase were taken, digested with trypsin (containing EDTA), collected, and counted, and approximately 20,000 cells/well were inoculated in 96-well cell culture plates and cultured overnight in a 5% CO2 incubator. A 1000×3.16-fold gradient concentration stock of the compound was prepared using DMSO, diluted 200-fold into a 5× compound stock using the medium described above, and a 5× compound stock was added to each cell culture well the day after cell inoculating at a final concentration of 1× and a DMSO content of 0.1%. DMSO was used as an experimental control. After the compound was added and the incubation was continued for 3 h, the medium in the culture wells was removed, […] of cell lysis solution (from Advance ERK phospho-T202/Y204 kit, the same below) was added to each well, mixed well and incubated for 30 min, then […] of the mixed solution was transferred to a white background opaque 96-well plate, and another well was taken as a blank well with adding […] of cell lysis solution. After the transfer, […] of p-ERK HTRF antibody mixed solution (from Advance ERK phospho-T202/Y204 kit) was added to each well, after incubation for 4 h, HTRF fluorescence value (RLU) was read by a microplate reader, and p-ERK level inhibition ratio of the compound was calculated IR (%)=(RLU control-RLU compound)/(RLU control-RLU blank)×100%, compound concentration and corresponding cell p-ERK level inhibition ratio were fitted using Prism 8 four-parameter method, and IC50 value was calculated.

[2] = tested on: AGS cells (KRAS^G12D mutation); test: Cell proliferation inhibition assay (3D, CellTiter-Glo), AGS; details: 3D cell model, 5 days
From the text: (§1) AsPC-1 was purchased from ATCC; Cat. NO.: CRL-1682; AGS was purchased from ATCC; Cat. NO.: CRL-1739; RPMI1640 was purchased from Gibco; Cat. NO.: 11875-093 2235123; F12K was purchased from Gibco; Cat. NO.: 21127-022; FBS was purchased from Gibco; Cat. NO.: 10099-141C; Trypsin (containing EDTA) was purchased from Gibco; Cat. NO.: 25200-072; CellTiter Glo-3D was purchased from Progema; Cat. NO.: G9683; 384-well sphere plates were purchased from coming; Cat. NO.: 3830; White background opaque 384-well plates were purchased from coming; Cat. NO.: 3570; Cell Counters were purchased from CHEMOMETEC; Model NO.: NC-200; microplate reader was purchased from PerkinElmer; Model NO.: Envison;
(§2) AsPC-1 is an endogenous human pancreatic cancer cell containing KRAS^G12D mutation, which is cultured in RPMI-1640 medium containing 10% FBS; AGS human gastric cancer cell line containing KRAS^G12D mutation, cultured in F-12K medium containing 10% FBS. Cells in the logarithmic growth phase were taken, digested with trypsin (containing EDTA), harvested and counted, and inoculated with 800 AsPC-1 cells/well or 400 AGS cells/well, respectively, in 384-well sphere plates and cultured overnight at 5% C02 to establish a 3D cell model. A 3.16-fold gradient concentration stock solution of 1000× compound was prepared using DMSO, diluted 100-fold into a 10× compound stock solution using media, and a 10× compound stock solution was added to each cell culture well the day after cell inoculating at a final concentration of 1× with a DMSO content of 0.1%. DMSO was used as an experimental control (control) and culture medium as a blank control (blank). After the addition of compounds, the cells were cultured for 5 days. […] CellTiter-Glo working solution was added to each well, mixed well, and incubated for 30 min. After standing for 30 min at room temperature, 40 μl of the mixed solution was transferred to a white background opaque 384-well plate. Luminescence chemiluminescence value was read on a microplate reader, and the cell proliferation inhibition ratio was calculated, IR (%)=(RLU control-RLU compound)/(RLU control-RLU blank)×100%. XLFit four-parameter method was used to fit the gradient dilution concentration of compounds and the corresponding cell proliferation inhibition ratio, and the IC50 value was calculated. […] Results for exemplary of the example compounds are shown in Table 3 below. - indicates not detected.

[3] = tested on: AsPC-1 cells (KRAS^G12D mutation); test: Cell proliferation inhibition assay (3D, CellTiter-Glo), AsPC-1; details: 3D cell model, 5 days
From the text: as §1, §2

Row | Compound | IC50 [1] | IC50 ([1]; Homo sapiens, AGS, 3 h) | also measured
1 | C#Cc1cc(F)cc2cccc(-c3ncc4c(N5CC6CCC(C5)N6)nc(OCC56CC(=C)CN5CC(=C)C6)nc4c3F)c12 [Example Z198] | 89.7 nM |  | 
2 | C#Cc1cccc2cc(O)cc(-c3cc4nc(OCC56CCCN5CC(=C)C6)nc(N5CC6CCC(C5)N6)c4cn3)c12 (stereo not drawn) [Example Z191, 4-(4-(3,8-diazabicyclo[3.2.1]octan-3-yl)-2-((2-methylenetetrahydro-1H-pyrrolizin-7a(5H)-yl)methoxy)pyrido[4,3-d]pyrimidin-7-yl)-5-ethynylnaphthalen-2-ol] |  | 612 nM | 
3 | C#Cc1cccc2nc(N)cc(-c3ncc4c(N5CC6CCC(C5)N6)nc(OCC56CC(=C)CN5CC(=C)C6)nc4c3F)c12 [Example Z201, 4-(4-(3,8-diazabicyclo[3.2.1]octan-3-yl)-2-((2,6-dimethylenetetrahydro-1H-pyrrolizin-7a(5H)-yl)methoxy)-8-fluoropyrido[4,3-d]pyrimidin-7-yl)-5-ethynylquinolin-2-amine] |  | 238 nM | 
4 | C#Cc1cccc2c(F)c(O)cc(-c3ncc4c(N5CC6CCC(C5)N6)nc(OCC56CC(=C)CN5CC(=C)C6)nc4c3F)c12 [Example Z203, 4-(4-(3,8-diazabicyclo[3.2.1]octan-3-yl)-2-((2,6-dimethylenetetrahydro-1H-pyrrolizin-7a(5H)-yl)methoxy)-8-fluoropyrido[4,3-d]pyrimidin-7-yl)-5-ethynyl-1-fluoronaphthalen-2-ol] |  | 25.6 nM | 
5 | C#Cc1cccc2cccc(-c3ncc4c(N5C[C@H]6CC[C@@H](C5)N6)nc(OCC56CC(=C)CN5CC(=C)C6)nc4c3F)c12 [Example Z190, 4-((1R,5S)-3,8-diazabicyclo[3.2.1]octan-3-yl)-2-((2,6-dimethylenetetrahydro-1H-pyrrolizin-7a(5H)-yl)methoxy)-7-(8-ethynylnaphthalen-1-yl)-8-fluoropyrido[4,3-d]pyrimidine] |  | 105 nM | IC50 ([2]; Homo sapiens, AGS, 120 h): 204 nM; IC50 ([3]; Homo sapiens, ASPC1, 120 h): 485 nM
6 | C#Cc1cccc2cc(O)cc(-c3ccc4c(N5CC6CCC(C5)N6)nc(OCC56CCCN5CC(=C)C6)nc4c3F)c12 [Example Z99, 4-(4-(1R,5S)-3,8-diazabicyclo[3.2.1]octan-3-yl)-8-fluoro-2-((2-methylenetetrahydro-1H-pyrrolizin-7a(5H)-yl)methoxy)quinazolin-7-yl)-5-ethynylnaphthalen-2-ol] | 2.9 nM |  | IC50 [2]: 5.2 nM; IC50 [3]: 36.6 nM
7 | C#Cc1cccc2cc(O)cc(-c3ncc4c(N5C[C@H]6CC[C@@H](C5)N6)nc(OCC56CCC7(CC7)N5CC(=C)C6)nc4c3F)c12 (stereo partly drawn) [Example Z22, 4-(4-((1R,5S)-3,8-diazabicyclo[3.2.1]oct-3-yl)-8-fluoro-2-((6′-methylenetetrahydrospiro[cyclopropane-1,3′-pyrrolizin]-7a′(5′H)-yl)methoxy)pyrido[4,3-d]pyrimidin-7-yl)-5-ethynylnaphthalen-2-ol] |  | 2.41 nM | IC50 ([2]; Homo sapiens, AGS, 120 h): 10.8 nM; IC50 ([3]; Homo sapiens, ASPC1, 120 h): 75.4 nM
8 | C#Cc1cccc2cccc(-c3c(Cl)cc4c(N5C[C@H]6CC[C@@H](C5)N6)nc(OCC56CCCN5CC(=C)C6)nc4c3F)c12 (stereo partly drawn) [Example Z193, 4-((1R,5S)-3,8-diazabicyclo[3.2.1]octan-3-yl)-6-chloro-7-(8-ethynylnaphthalen-1-yl)-8-fluoro-2-((2-methylenetetrahydro-1H-pyrrolizin-7a(5H)-yl)methoxy)quinazoline] |  | 623 nM | 
9 | C#Cc1cccc2cc(O)cc(-c3ncc4c(N5CC6CCC(C6)C5)nc(OC[C@@]56CCCN5C[C@H](F)C6)nc4c3F)c12 [Example Z192, 4-(4-((1R,5S)-3-azabicyclo[3.2.1]octan-3-yl)-8-fluoro-2-(((2R,7aS)-2-fluorotetrahydro-1H-pyrrolin-7a(5H)-yl)methoxy)pyrido[4,3-d]pyrimidin-7-yl)-5-ethynylnaphthalen-2-ol] | 93.5 nM |  | 
10 | C#Cc1cccc2cc(O)cc(-c3ncc4c(N5C[C@H]6CC[C@@H](C5)[C@@H]6O)nc(OC[C@@]56CCCN5C[C@H](F)C6)nc4c3F)c12 [Example Z205-1, (1R,5S,8R)-3-(7-(8-ethynyl-3-hydroxynaphthalen-1-yl)-8-fluoro-2-(((2R,7aS)-2-fluorotetrahydro-1H-pyrrolizin-7a(5H)-yl)methoxy)pyrido[4,3-d]pyrimidin-4-yl)-3-azabicyclo[3.2.1]octan-8-ol] | 612 nM |  | 
11 | C#Cc1cccc2cc(O)cc(-c3ncc4c(N5C[C@H]6CC[C@@H](C5)[C@H]6O)nc(OC[C@@]56CCCN5C[C@H](F)C6)nc4c3F)c12 [Example Z205-2, (1R, 5S, 8S)-3-(7-(8-ethynyl-3-hydroxynaphthalen-1-yl)-8-fluoro-2-(((2R,7aS)-2-fluorotetrahydro-1H-pyrrolizin-7a(5H)-yl)methoxy)pyrido[4,3-d]pyrimidin-4-yl)-3-azabicyclo[3.2.1]octan-8-ol] | 206 nM |  | 
12 | C#Cc1c(Cl)ccc2cccc(-c3ncc4c(N5C[C@H]6CC[C@@H](C5)N6)nc(OCC56CC(=C)CN5CC(=C)C6)nc4c3F)c12 [Example Z195, 4-((1R,5S)-3,8-diazabicyclo[3.2.1]octan-3-yl)-7-(7-chloro-8-ethynylnaphthalen-1-yl)-2-((2,6-dimethylenetetrahydro-1H-pyrrolizin-7a(5H)-yl)methoxy)-8-fluoropyrido[4,3-d]pyrimidine] |  | 162 nM | 
13 | C#Cc1cccc2cc(O)cc(-c3ncc4c(N5C[C@H]6CC[C@@H](C5)N6)nc(OCC56CC(=C)CN5[C@@H]5C[C@@H]5C6)nc4c3F)c12 (stereo partly drawn) [Example Z26, 4-(4-((1R,5S)-3,8-diazabicyclo[3.2.1]octan-3-yl)-8-fluoro-2-(((1aR,6aR)-4-methylenehexahydrocyclopropa[b]pyrrolizin-5a(3H)-yl)methoxy)pyrido[4,3-d]pyrimidin-7-yl)-5-ethynylnaphthalen-2-ol] |  | 2.76 nM | 
14 | C#Cc1cccc2c(N)ccc(-c3ncc4c(N5CC6CCC(C5)N6)nc(OCC56CC(=C)CN5CC(=C)C6)nc4c3F)c12 [Example Z209] | 464 nM |  | 
15 | C#Cc1cccc2c(O)ccc(-c3ncc4c(N5C[C@H]6CC[C@@H](C5)N6)nc(OCC56CC(=C)CN5CC(=C)C6)nc4c3F)c12 [Example Z208, 4-(4-((1R,5S)-3,8-diazabicyclo[3.2.1]octan-3-yl)-2-((2,6-dimethylenetetrahydro-1H-pyrrolizin-7a(5H)-yl)methoxy)-8-fluoropyrido[4,3-d]pyrimidin-7-yl)-5-ethynylnaphthalen-1-ol] |  | 9.04 nM | 
